For assay [1], the species on record is Rattus norvegicus. In words: Inhibition of cell growth by compound at a concentration of 100 uM in 9Ltk+ cells; Completely stopped the process. It is filed as functional, cell-based.
Assay [2] is described as follows: Inhibition of cell growth by compound at a concentration of 10 uM in 9Ltk+ cells. It is filed as functional. Conditions: Rattus norvegicus.
The species named for assay [3] is Rattus norvegicus. In words: Anti proliferation activity determined; Weak effect. It is filed as functional.
The species named for assay [4] is Rattus norvegicus. In words: Inhibition of cell growth by compound at a concentration of 10 uM in 9Ltk+ cells; […]. It is filed as functional, cell-based.

A word on the inhibition: it is the percentage by which the read-out fell short of the control. A lower inhibition goes with little suppression. For the molecule `Nc1nc2c(ncn2COCCO)c(=O)[nH]1`, the inhibition result in the assay filed under Rattus norvegicus [1] is recorded as “Completely stopped the process”.

The molecule `Nc1nc(O)c2ncn(COC(CO)CF)c2n1` (centres undefined) gave an inhibition at 10 µM in assay [2] of 50%.

Regarding `Nc1nc2c(ncn2COC(CO)CO)c(=O)[nH]1`, the Activity result in the assay listed under Rattus norvegicus [3] is “Weak effect”. Besides, the inhibition entry in the assay listed under Rattus norvegicus [4] is listed as “Completely stopped the process”.

The values above are taken from ChEMBL document CHEMBL1130487, “Development of a positron emission tomography radiopharmaceutical for imaging thymidine kinase gene expression: Synthesis and in vitro evaluation of 9-{3-[18F] Fluoro-1-hydroxy-2-propoxymethyl guanine” (1997).
